Reference: PubChem BioAssay (NCI)
Several values for one entry are separate records, joined by “and”; a condition that tells them apart may be missing. Equal entries are not always repeated.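 Cultured in 96-well plates, cells were exposed to test compound for 48 hours across five concentrations. GI50: concentration for 50% inhibition of growth. TGI denotes the concentration required for complete inhibition of growth.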

Assays:
Assay in all cases: NCI-60 cell line screen, 48 h
BT-549 breast = tested on: BT-549 breast
HCT-116 colon = tested on: HCT-116 colon
HCT-15 colon = tested on: HCT-15 colon
HT29 colon = tested on: HT29 colon
MCF7 breast = tested on: MCF7 breast
MDA-MB-435 = tested on: MDA-MB-435
OVCAR-3 ovarian = tested on: OVCAR-3 ovarian
OVCAR-8 ovarian = tested on: OVCAR-8 ovarian
SK-MEL-5 melanoma = tested on: SK-MEL-5 melanoma
SK-OV-3 ovarian = tested on: SK-OV-3 ovarian
UACC-62 melanoma = tested on: UACC-62 melanoma

O=C(NCCC1CNc2ccccc21)OCc1ccccc1 (configuration not stated)
TGI (BT-549 breast): > 100 µM
TGI (HCT-116 colon): > 100 µM
TGI (HCT-15 colon): > 100 µM
TGI (HT29 colon): > 100 µM
TGI (MCF7 breast): > 100 µM
TGI (MDA-MB-435): > 100 µM
TGI (OVCAR-3 ovarian): > 100 µM
TGI (OVCAR-8 ovarian): > 100 µM
TGI (SK-MEL-5 melanoma): > 100 µM
TGI (SK-OV-3 ovarian): > 100 µM
TGI (UACC-62 melanoma): > 100 µM

Cc1cc(N(CCC#N)CCC#N)ccc1/C(N=Nc1ccccc1)=N\NC(=O)c1cc(Cl)ccc1O
TGI (BT-549 breast): 57 µM
TGI (HCT-116 colon): 36.7 µM
TGI (HCT-15 colon): 53.1 µM
TGI (HT29 colon): 35.4 µM
TGI (MCF7 breast): 67.9 µM
TGI (MDA-MB-435): > 100 µM
TGI (OVCAR-3 ovarian): 72.8 µM
TGI (OVCAR-8 ovarian): 81.5 µM
TGI (SK-MEL-5 melanoma): 46.5 µM
TGI (SK-OV-3 ovarian): > 100 µM
TGI (UACC-62 melanoma): 27.7 µM

CC(=O)NC1C(OCC(=O)NCCNc2ccc([N+](=O)[O-])c3[nH]c4ccccc4c(=O)c23)C(O)C(CO)OC1(C)OCc1ccccc1 (configuration not stated)
TGI (BT-549 breast): > 100 µM
TGI (HCT-116 colon): > 100 µM
TGI (HCT-15 colon): > 100 µM
TGI (HT29 colon): > 100 µM
TGI (MCF7 breast): > 100 µM
TGI (MDA-MB-435): > 100 µM
TGI (OVCAR-3 ovarian): > 100 µM
TGI (OVCAR-8 ovarian): > 100 µM
TGI (SK-MEL-5 melanoma): > 100 µM
TGI (SK-OV-3 ovarian): > 100 µM
TGI (UACC-62 melanoma): > 100 µM

C[C@@H](CC(=O)OCc1ccccc1)OC1OC(COC(=O)C(C)(C)C)C(OC(=O)C(C)(C)C)C(OC(=O)C(C)(C)C)C1OC(=O)C(C)(C)C (some centres not stated)
TGI (BT-549 breast): > 100 µM
TGI (HCT-116 colon): > 100 µM
TGI (HCT-15 colon): > 100 µM
TGI (HT29 colon): > 100 µM
TGI (MCF7 breast): > 100 µM
TGI (MDA-MB-435): > 100 µM
TGI (OVCAR-3 ovarian): > 100 µM
TGI (OVCAR-8 ovarian): > 100 µM
TGI (SK-MEL-5 melanoma): > 100 µM
TGI (SK-OV-3 ovarian): > 100 µM
TGI (UACC-62 melanoma): > 100 µM

COC(=O)/C=C/c1ccc(OP(=O)(O)O)c(OC)c1
TGI (BT-549 breast): > 100 µM
TGI (HCT-116 colon): > 100 µM
TGI (HCT-15 colon): > 100 µM
TGI (HT29 colon): > 100 µM
TGI (MCF7 breast): > 100 µM
TGI (MDA-MB-435): > 100 µM
TGI (OVCAR-3 ovarian): > 100 µM
TGI (OVCAR-8 ovarian): > 100 µM
TGI (SK-MEL-5 melanoma): > 100 µM
TGI (SK-OV-3 ovarian): > 100 µM
TGI (UACC-62 melanoma): > 100 µM

CC(C)C(Cl)CCC(C)(Cl)C(=O)CBr (configuration not stated)
TGI (BT-549 breast): 22.6 µM
TGI (HCT-116 colon): 9.06 µM
TGI (HCT-15 colon): 10.6 µM
TGI (HT29 colon): 11.6 µM
TGI (MCF7 breast): 4.53 µM
TGI (MDA-MB-435): 14 µM
TGI (OVCAR-3 ovarian): 16.4 µM
TGI (OVCAR-8 ovarian): > 100 µM
TGI (SK-MEL-5 melanoma): 14.3 µM
TGI (SK-OV-3 ovarian): 39.1 µM
TGI (UACC-62 melanoma): 10.2 µM

NC1=NC2(COC(c3ccccc3)(c3ccccc3)c3ccccc3)OC(COC(c3ccccc3)(c3ccccc3)c3ccccc3)C(O)C2O1 (configuration not stated)
TGI (BT-549 breast): > 100 µM
TGI (HCT-116 colon): > 100 µM
TGI (HCT-15 colon): > 100 µM
TGI (HT29 colon): > 100 µM
TGI (MCF7 breast): > 100 µM
TGI (MDA-MB-435): > 100 µM
TGI (OVCAR-3 ovarian): > 100 µM
TGI (OVCAR-8 ovarian): > 100 µM
TGI (SK-MEL-5 melanoma): > 100 µM
TGI (SK-OV-3 ovarian): > 100 µM
TGI (UACC-62 melanoma): > 100 µM

COc1cc([C@@H]2c3cc4c(cc3[C@@H](Nc3ccc(NC(=O)c5cc([N+](=O)[O-])cn5C)cc3)[C@H]3COC(=O)[C@H]23)OCO4)cc(OC)c1O
GI50 (BT-549 breast): 0.515 µM
TGI (BT-549 breast): > 100 µM
TGI (HCT-116 colon): > 100 µM and 10 µM
GI50 (HCT-15 colon): 0.192 µM
TGI (HCT-15 colon): 1.54 µM and 2.48 µM
TGI (HT29 colon): 1.33 µM
TGI (MCF7 breast): > 31.6 µM
GI50 (MDA-MB-435): 0.415 µM
TGI (MDA-MB-435): > 100 µM
TGI (OVCAR-3 ovarian): 10.7 µM and 3.15 µM
TGI (OVCAR-8 ovarian): 1.04 µM
GI50 (SK-MEL-5 melanoma): 0.0291 µM and 0.0847 µM
TGI (SK-MEL-5 melanoma): 0.183 µM and 0.316 µM
GI50 (SK-OV-3 ovarian): 0.104 µM and 0.262 µM
TGI (SK-OV-3 ovarian): > 100 µM and 19.1 µM

S=C1Cc2c(-c3ccccc3)cc(-c3cccc(Cl)c3)nc2-c2ccccc2N1
TGI (BT-549 breast): 19.5 µM
TGI (HCT-116 colon): 6.53 µM
TGI (HCT-15 colon): 33.4 µM
TGI (HT29 colon): 11.5 µM
TGI (MCF7 breast): > 58.1 µM
TGI (MDA-MB-435): > 60.9 µM
TGI (OVCAR-3 ovarian): 25.9 µM
TGI (OVCAR-8 ovarian): 4.39 µM
TGI (SK-MEL-5 melanoma): > 81.7 µM
TGI (SK-OV-3 ovarian): 17.4 µM
TGI (UACC-62 melanoma): 5.36 µM

Cc1ccc(S[C@@](C=O)(NC(=O)OCc2ccccc2)C(F)(F)F)cc1
TGI (BT-549 breast): 81.8 µM
TGI (HCT-116 colon): 36.7 µM
TGI (HCT-15 colon): 54.4 µM
TGI (HT29 colon): 37.9 µM
TGI (MCF7 breast): 78.4 µM
TGI (MDA-MB-435): 86.3 µM
TGI (OVCAR-3 ovarian): > 100 µM
TGI (OVCAR-8 ovarian): 43.7 µM
TGI (SK-MEL-5 melanoma): 41.4 µM
TGI (SK-OV-3 ovarian): > 100 µM
TGI (UACC-62 melanoma): 40.4 µM

COc1ccc(CCCCNCc2cccc(CNCCCCc3ccc(OC)cc3)c2)cc1
TGI (BT-549 breast): 3.36 µM
TGI (HCT-116 colon): 3.88 µM
TGI (HCT-15 colon): 3.55 µM
TGI (HT29 colon): 3.16 µM
TGI (MCF7 breast): 3.06 µM
TGI (MDA-MB-435): 3.63 µM
TGI (OVCAR-3 ovarian): 3.37 µM
TGI (OVCAR-8 ovarian): 3.23 µM
TGI (SK-MEL-5 melanoma): 3.25 µM
TGI (SK-OV-3 ovarian): 4.02 µM
TGI (UACC-62 melanoma): 3.55 µM

COC1(OC)CCc2c(sc3ncnc(Nc4cccc(Br)c4)c23)C1
TGI (BT-549 breast): > 100 µM
TGI (HCT-116 colon): > 100 µM
TGI (HCT-15 colon): > 100 µM
TGI (HT29 colon): 45.1 µM
TGI (MCF7 breast): > 100 µM
TGI (MDA-MB-435): > 100 µM
TGI (OVCAR-3 ovarian): > 100 µM
TGI (OVCAR-8 ovarian): > 100 µM
TGI (SK-MEL-5 melanoma): > 100 µM
TGI (SK-OV-3 ovarian): > 100 µM
TGI (UACC-62 melanoma): > 100 µM

CC(N)(CC(O)(C(F)(F)Cl)C(F)(F)Cl)C(=O)O (configuration not stated)
TGI (BT-549 breast): > 10 µM
TGI (HCT-116 colon): > 10 µM
TGI (HCT-15 colon): > 10 µM
TGI (HT29 colon): > 10 µM
TGI (MCF7 breast): > 10 µM
TGI (MDA-MB-435): > 10 µM
TGI (OVCAR-3 ovarian): > 10 µM
TGI (OVCAR-8 ovarian): > 10 µM
TGI (SK-MEL-5 melanoma): > 10 µM
TGI (SK-OV-3 ovarian): > 10 µM
TGI (UACC-62 melanoma): > 10 µM

COC(=O)[C@@H]1[C@@H]2NC(=S)N[C@@]1(C)Oc1ccccc12
TGI (BT-549 breast): > 100 µM
TGI (HCT-116 colon): > 100 µM
TGI (HCT-15 colon): > 100 µM
TGI (HT29 colon): > 100 µM
TGI (MCF7 breast): > 100 µM
TGI (MDA-MB-435): 33.5 µM
TGI (OVCAR-3 ovarian): > 100 µM
TGI (OVCAR-8 ovarian): > 100 µM
TGI (SK-MEL-5 melanoma): > 100 µM
TGI (SK-OV-3 ovarian): > 100 µM
TGI (UACC-62 melanoma): > 100 µM

CCCCCCCCCCCCCCCCCCNc1ccn(C2OC(COP(=O)(O)OCC3OC(n4ccc(N)nc4=O)C(O)C3O)C(O)C2O)c(=O)n1 (configuration not stated)
TGI (BT-549 breast): > 87.9 µM
TGI (HCT-116 colon): > 100 µM
TGI (HCT-15 colon): > 100 µM
TGI (HT29 colon): > 100 µM
TGI (MCF7 breast): > 100 µM
TGI (MDA-MB-435): > 100 µM
TGI (OVCAR-3 ovarian): > 100 µM
TGI (OVCAR-8 ovarian): > 62.2 µM
TGI (SK-MEL-5 melanoma): > 100 µM
TGI (SK-OV-3 ovarian): > 100 µM
TGI (UACC-62 melanoma): > 100 µM

COC1(OC)c2occc2C(=N)c2ccc(=O)oc21
TGI (BT-549 breast): > 100 µM
TGI (HCT-116 colon): > 100 µM
TGI (HCT-15 colon): > 100 µM
TGI (HT29 colon): > 100 µM
TGI (MCF7 breast): > 100 µM
TGI (MDA-MB-435): > 100 µM
TGI (OVCAR-3 ovarian): > 100 µM
TGI (SK-MEL-5 melanoma): 49.2 µM
TGI (SK-OV-3 ovarian): > 100 µM
TGI (UACC-62 melanoma): > 100 µM

Clc1ccc(C=Nc2ccc(Oc3ccc(Cl)cc3)c(Cl)c2)cc1
TGI (BT-549 breast): 53.3 µM
TGI (HCT-116 colon): 36.2 µM
TGI (HCT-15 colon): 44.2 µM
TGI (HT29 colon): 55 µM
TGI (MCF7 breast): 88 µM
TGI (MDA-MB-435): 82.5 µM
TGI (OVCAR-3 ovarian): 40.4 µM
TGI (OVCAR-8 ovarian): > 100 µM
TGI (SK-MEL-5 melanoma): 49.5 µM
TGI (SK-OV-3 ovarian): 50.2 µM
TGI (UACC-62 melanoma): 41.5 µM

O=c1[nH]c(N/N=C\C(O)C(O)C(O)C(O)CO)nc2ccccc12 (configuration not stated)
TGI (BT-549 breast): > 100 µM
TGI (HCT-116 colon): > 100 µM
TGI (HCT-15 colon): > 100 µM
TGI (HT29 colon): > 100 µM
TGI (MCF7 breast): > 100 µM
TGI (MDA-MB-435): > 100 µM
TGI (OVCAR-3 ovarian): > 100 µM
TGI (OVCAR-8 ovarian): > 100 µM
TGI (SK-MEL-5 melanoma): > 100 µM
TGI (SK-OV-3 ovarian): > 100 µM
TGI (UACC-62 melanoma): > 100 µM

CCOc1cnc(C(O)(c2ccccc2)c2ccccc2)o1
TGI (BT-549 breast): > 100 µM
TGI (HCT-116 colon): > 100 µM
TGI (HCT-15 colon): > 100 µM
TGI (HT29 colon): > 100 µM
TGI (MCF7 breast): > 100 µM
TGI (MDA-MB-435): > 100 µM
TGI (OVCAR-3 ovarian): > 100 µM
TGI (OVCAR-8 ovarian): > 100 µM
TGI (SK-MEL-5 melanoma): > 100 µM
TGI (SK-OV-3 ovarian): > 100 µM
TGI (UACC-62 melanoma): > 100 µM
